# Test results reported in PMC9231138, “Dihydrotanshinone I Enhances Cell Adhesion and Inhibits Cell Migration in Osteosarcoma U−2 OS Cells through CD44 and Chemokine Signaling” (Molecules, 2022).
# Columns and labels:
# Format in all cases: cell-based, human
# STAT3 = test: Western blot STAT3; conditions: DS−1 2.5, 5.0, and 7.5 µM, 24 h
# Description: (§1) Sample preparation: U−2 OS cells seeded in 10 cm Petri dishes were collected and washed with ice-cold PBS and RIPA lysis buffer with PMAF; phosphatase inhibitor was added, and the tubes were placed on ice for 30 min and vortexed for 30 s at intervals of 10 min. The samples were centrifuged at 12,000 g at 4 °C for 15 min, and the supernatants were collected in new centrifuge tubes. The protein samples were placed on ice, and the concentration of each protein sample was measured by the BCA kit (Thermo). The protein concentration was adjusted to the same by milli Q ultrapure water.
# (§2) Loading and running the gel: Equal amounts of protein were loaded into the wells of the 10% SDS-PAGE gel, along with molecular weight markers, and 15 μg of total protein from the cell lysate was loaded. We then ran the gel for 45 min at 200 V.
# (§3) Transferring the protein: We prepared the transfer stack as follows: negative plate, sponge, filter paper, gel, PVDF membrane, filter paper, sponge, and positive plate. The transfer was for 90 min at 200 mA.
# (§4) Antibody staining: We blocked the membrane for 1 h at room temperature using 5% blocking solution, then incubated the membrane with appropriate dilutions of the primary antibody in the blocking solution overnight at 4 °C. […] Images were acquired using darkroom development techniques for chemiluminescence and analyzed by Image J.
# U−2 OS cells = test: Scratch motility (wound-healing) assay
# Description: U-2 OS cells were seeded in 6-well plates at a density of 200,000 per well and cultured to 90% abundance after 18 h. The cells were scratched with a 10 μL pipette tip along the ruler; each well was scratched 3 times in parallel, and the line was drawn perpendicular to the scratch on the back for fixed-point photography. We suctioned the previous medium and washed the cells with a PBS reagent. Then, we added 2% FBS medium with DS−1 and cultured the cells at 37 °C for different times. After 0, 24, and 48 h, the plate was taken out, and the scratches were observed and photographed by the inverted microscope, while the distance of scratches at different times was measured.
# Cell mobility = (pre-migration distance – post-migration distance)/pre-migration distance × 100%. The cell migration rate of blank control was set as 100%, and the relative cell migration rate = cell migration rate/cell migration rate of control group × 100%
# p53 = test: Western blot p53; conditions: DS−1 2.5, 5.0, and 7.5 µM, 24 h
# Description: as §1, §2, §3, §4
# CD44 = CD44 expression by immunofluorescence; conditions: DS−1 2.5, 5.0, and 7.5 µM for 24 h
# Description: Figure 7 DS−1 enhanced U−2 OS cells’ adhesion. (A) The morphological changes of U−2 OS cells treated with/without DS−1. Cells were treated with 0 and 7.5 μM DS−1 for 24 h, washed with PBS, and digested with trypsin at 25 °C under a microscope, and photos were taken every 30 s. The percentages of digested cells are recorded in (B). (C) Heatmap of genes related to the adherens’ junction in the control group and DS−1 group. (D) U−2 OS cells were treated with 0 and 7.5 μM DS−1 for 24 h, and the expression of CD44 was observed by immunofluorescence. (E,F) CD44 and GAPDH were analyzed by Western blot and calculated by Image J. (G) The relative expression of 4 kinds of MT-MMPs was analyzed by the transcriptome, as shown in the heatmap. (H) After being treated with DS−1, the relative expression of MT-MMP-1 was verified by RT-PCR. Values are the average of three independent experiments, * p < 0.05, ** p < 0.01, *** p < 0.005.
# Coverslip preparation: we cultured U−2 OS cells on sterile glass coverslips in 24-well plates and then treated them with DS−1 at different concentrations.
# Fixation and staining: We washed the cells with PBS 3 times and fixed the cells with 200 μL 4% paraformaldehyde/PBS solution at 4 °C for 15 min. We then rinsed 3 times with PBS and permeabilized with 200 μL 0.2% TritonX-100 at room temperature for 30 min. […]
# FASN = test: RT-PCR FASN mRNA in U−2 OS cells; conditions: 24 h
# Description: Total RNA within cells was extracted by the RNAeasy™ Animal Long RNA Isolation Kit with Spin Column (Shanghai, Beyotime); the concentrations and OD260/OD280 and OD230/OD260 values were measured by NanoDrop. Five micrograms of RNA was used for reverse transcription; each sample was diluted to 16 μL, and 4 μL of synthesized premix solution (5×) was added, then the mixtures were placed in a 42 °C water bath for 10 min, then an 80 °C water bath for 10 min to deactivate reverse transcriptase. After reverse transcription, each sample was diluted to 140 μL. PCR amplification was carried out by the ABI700 real-time PCR system, and the amplification reaction was detected with a SYBR probe. After PCR, actin and GAPDH were used as internal references, and the relative standard curve method (2^−ΔΔcT) determined the relative expression of mRNA.
compound,measurement,setting,value
"Cc1cccc2c3c(ccc12)C1=C(C(=O)C3=O)[C@@H](C)CO1 [DS−1, 15,16-Dihydrotanshinone I]",total protein content of STAT3,STAT3,did not change significantly
same,relative mobility compared to control cells,"U−2 OS cells; DS−1 2.5 µM, 24 h",24.8 ± 9.9%
same,relative mobility compared to control cells,"U−2 OS cells; DS−1 2.5 μM, 48 h",18.1 ± 6.6%
same,relative mobility compared to control cells,"U−2 OS cells; DS−1 5.0 µM, 24 h",17.5 ± 6.6%
same,relative mobility compared to control cells,"U−2 OS cells; DS−1 5.0 μM, 48 h",7.3 ± 7.1%
same,relative mobility compared to control cells,"U−2 OS cells; DS−1 7.5 µM, 24 h",6.6 ± 0.8%
same,relative mobility compared to control cells,"U−2 OS cells; DS−1 7.5 μM, 48 h",4.3 ± 1.8%
same,level of p53,p53,significantly increased
same,CD44 expression,CD44,significantly increased
same,"FASN mRNA, fold of the control group",FASN; DS−1 2.5 µM,0.59 ± 0.14 fold
same,"FASN mRNA, fold of the control group",FASN; DS−1 5.0 µM,0.51 ± 0.07 fold
same,"FASN mRNA, fold of the control group",FASN; DS−1 7.5 µM,0.26 ± 0.01 fold
